In patent US10881653B2, “Tricyclic compounds and their use in the treatment of cancer” (The United States of America, as represented by the …, priority 2015, dated 2021):
Counter-ions that a name gives are not always drawn. Like-named read-outs stand apart in the source and are kept apart here.

Biological target: T1, recombinant thioredoxin reductase 1 (TrxR1) (Homo sapiens, UniProt Q16881)
T1 sequence (Q16881 1-649): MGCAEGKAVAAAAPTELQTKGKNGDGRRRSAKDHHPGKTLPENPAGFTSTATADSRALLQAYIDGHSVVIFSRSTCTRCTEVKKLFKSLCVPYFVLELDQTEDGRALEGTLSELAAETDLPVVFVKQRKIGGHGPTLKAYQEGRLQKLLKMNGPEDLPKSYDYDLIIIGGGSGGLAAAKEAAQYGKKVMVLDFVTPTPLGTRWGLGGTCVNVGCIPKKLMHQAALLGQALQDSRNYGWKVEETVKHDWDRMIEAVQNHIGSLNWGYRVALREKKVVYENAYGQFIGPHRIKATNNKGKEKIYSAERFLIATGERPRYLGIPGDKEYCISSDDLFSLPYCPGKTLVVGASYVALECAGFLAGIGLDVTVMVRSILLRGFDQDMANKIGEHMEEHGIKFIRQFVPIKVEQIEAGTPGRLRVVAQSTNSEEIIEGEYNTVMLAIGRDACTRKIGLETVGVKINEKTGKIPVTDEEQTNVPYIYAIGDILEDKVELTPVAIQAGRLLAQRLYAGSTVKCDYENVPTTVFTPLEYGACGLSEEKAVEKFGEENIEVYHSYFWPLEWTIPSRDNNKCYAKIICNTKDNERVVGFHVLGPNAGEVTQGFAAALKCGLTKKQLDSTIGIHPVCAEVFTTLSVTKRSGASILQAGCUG
Assay: Inhibition of recombinant TrxR1 (DTNB assay)
Format: biochemical
Procedure, shortened: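 Human TrxR1 (15 nM) or GR (2 nM) preincubated 15 min with compound, 250 μM NADPH, 0.1 mg/ml BSA in 50 mM Tris pH 7.5, 2 mM EDTA, 1% DMSO. Reaction started with 2.5 mM DTNB (TrxR1, A412) or 1 mM GSSG (GR, A340). Percent activity relative to DMSO and no-enzyme blanks.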

## O=C1C=C[C@H]2[C@@H]3C(=O)N(c4ccccc4)C(=O)[C@@H]3[C@@H]1N2Cc1ccccc1 (relative stereo) [Example 1, exo-11-Benzyl-4-phenyl-4,11-diazatricyclo[5.3.1.0^2,6]undec-9-ene-3,5,8-trione Trifluoroacetate]
Biological Example 1, 15 nM TrxR1, 250 μM NADPH, 15 minutes incubation, read-out: TrxR inhibition
  IC50: 2.14 µM
Biological Example 4, assays of Biological Example 1, read-out: TrxR Inhibition
  IC50: 2.19 µM
